Source: the NIST ThermoML archive (doi:10.1016/j.jct.2011.02.008)

Settings: Liquid, Vibrating tube method

C1CCCCC1 [cyclohexane]
mass density [kg/m3]
Settings	288.15 K	298.15 K	308.15 K	318.15 K	328.15 K	338.15 K	348.15 K	358.15 K
100 kPa	782.7	773.2	763.6	754	744.4	734.5	724.6	714.3
1000 kPa	783.7	774	764.5	755	745.4	735.6	725.7	715.6
5000 kPa	787	777.6	768.2	759	749.7	740.2	730.8	720.9
10000 kPa	790.7	781.8	772.6	763.7	754.7	745.7	736.5	727.2
15000 kPa	794.1	785.6	776.8	767.9	759.5	750.7	741.9	732.9
20000 kPa	–	789.3	780.8	772.4	764	755.5	747	738.3
25000 kPa	–	792.9	784.6	776.4	768.2	760	751.7	743.3
30000 kPa	–	796.8	788.3	780.3	772.3	764.3	756.2	748.1
35000 kPa	–	799.7	791.8	784.1	776.1	768.4	760.5	752.6
40000 kPa	–	–	795.2	787.7	779.9	772.3	764.6	757
45000 kPa	–	–	–	791.1	783.5	776	768.6	761.1
50000 kPa	–	–	–	794.4	787	779.7	772.3	765
55000 kPa	–	–	–	–	–	783.2	776	768.9
